Literature values in paper PMC5641599 (Molecular Metabolism, 2017).
Like-named read-outs stand apart in the source and are kept apart here.

Columns and labels:
Details in all cases: cited from earlier work
MC4R variants [1] = test system: MC4R variants
MC4R variants [2] = test system: MC4R variants; remark: listed apart in the source
MC4R variants [3] = test system: MC4R variants; remark: listed apart in the source
MC4R variants [4] = test system: MC4R variants; remark: listed apart in the source
[5] = ref Xiang Z, Biochemistry, 2010
[6] = COS-7 cell line, ref Hughes DA, Hum Genet, 2009
[7] = COS-7 cell line, ref Brumm H, Obesity, 2012
[8] = ref Rong R, Clin Endocrinol, 2006
[9] = ref Xiang Z, Biochemistry, 2006
[10] = ref Lubrano-Berthelier C, J Clin Endocrinol Metab, 2006
[11] = MC4R D126Y, ref Wang ZQ, Biochim Biophys Acta, 2011
[12] = MC4R D146N, ref Wang ZQ, Biochim Biophys Acta, 2011
[13] = MC4R F201L, ref Wang ZQ, Biochim Biophys Acta, 2011
[14] = MC4R G231V, ref Wang ZQ, Biochim Biophys Acta, 2011
[15] = MC4R I170del, ref Wang ZQ, Biochim Biophys Acta, 2011
[16] = MC4R I186V, ref Wang ZQ, Biochim Biophys Acta, 2011
[17] = MC4R I195S, ref Wang ZQ, Biochim Biophys Acta, 2011
[18] = MC4R P260Q, ref Wang ZQ, Biochim Biophys Acta, 2011
[19] = MC4R Q307X, ref Wang ZQ, Biochim Biophys Acta, 2011
[20] = MC4R T248A, ref Huang H, J Mol Endocrinol, 2012
[21] = ref Wang ZQ, Biochim Biophys Acta, 2011

R18L
Cell surface expression (MC4R variants [1]; ref Srinivasan S, J Clin Invest, 2004): 95 % of WT | Cell surface expression (MC4R variants [1]; [5]): 95 % of WT

S30F
Cell surface expression (MC4R variants [1]; S30F variant alone, ref Lubrano-Berthelier C, Hum Mol Genet, 2003): 120 % of WT | Basal activity (MC4R variants [2]; COS-7 cell line, ref Hinney A, J Clin Endocrinol Metab, 2003): 140 % of WT

S30F/G252S
Cell surface expression (MC4R variants [1]; both variants on the same allele, ref Lubrano-Berthelier C, Hum Mol Genet, 2003): 60 % of WT | Cell surface expression (MC4R variants [1]; both variants on the same allele, ref Nijenhuis WA, J Biol Chem, 2003): 69 % of WT

S36T
Cell surface expression (MC4R variants [1]; [6]): 107 % of WT | Basal activity (MC4R variants [2]; [6]): 83 % of WT

S36Y
Cell surface expression (MC4R variants [1]; [5]): 90 % of WT

W16X (MVNSTHRGMHTSLHL; nonsense W16X; UniProt P32245 1-15, looked up, fragment)
Cell surface expression (MC4R variants [1]; [7]): 5 % of WT | Cell surface expression (MC4R variants [1]; HEK293 cell line, ref Bolze F, Pharmacogenomics J, 2013): 0 % of WT

Y35C
Cell surface expression (MC4R variants [1]; [8]): 100 % of WT | Basal activity (MC4R variants [2]; [8]): 172 % of WT

Y35X (MVNSTHRGMHTSLHLWNRSSYRLHSNASESLGKG; nonsense Y35X; UniProt P32245 1-34, looked up, fragment)
Cell surface expression (MC4R variants [1]; [7]): 0 % of WT | Cell surface expression (MC4R variants [1]; [9]): 5 % of WT

Y35X;D37V (MVNSTHRGMHTSLHLWNRSSYRLHSNASESLGKG; nonsense Y35X; D37V; UniProt P32245 1-34, looked up, fragment)
Cell surface expression (MC4R variants [1]; [10]): 0 % of WT | Basal activity (MC4R variants [2]; [10]): 10 % of WT

Y287X
Cell surface expression (MC4R variants [1]; [9]): 30 % of WT | Cell surface expression (MC4R variants [1]; ref Yeo GS, Hum Mol Genet, 2003): 0 % of WT

β-MSH
cAMP Emax - Ligand no.2 (MC4R variants [3]; MC4R C40Y, COS-7 cell line, ref Hughes DA, Hum Genet, 2009): 98.0 % of WT | cAMP Emax - Ligand no.2 (% of WT) (MC4R variants [3]; MC4R C271R, COS-7 cell line, ref Tarnow P, J Biol Chem, 2003): 22.5 % of WT | cAMP Emax - Ligand no.2 (MC4R variants [3]; MC4R D37G, ref Hughes DA, Hum Genet, 2009): 75.0 % of WT | cAMP Emax - Ligand no.2 (% of WT) (MC4R variants [3]; [11]): 0.0 % of WT | cAMP Emax - Ligand no.2 (% of WT) (MC4R variants [3]; [12]): 96.1 % of WT | cAMP Emax - Ligand no.2 (% of WT) (MC4R variants [3]; [13]): 100.0 % of WT | cAMP Emax - Ligand no.2 (% of WT) (MC4R variants [3]; MC4R F202L, COS-7 cell line, ref Hughes DA, Hum Genet, 2009): 79.0 % of WT | cAMP Emax - Ligand no.2 (MC4R variants [3]; MC4R F280AfsX12, ref Xiang Z, Biochemistry, 2006): 0.0 % of WT | cAMP Emax - Ligand no.2 (% of WT) (MC4R variants [3]; MC4R G181D, ref Xiang Z, Biochemistry, 2010): 0.0 % of WT | cAMP Emax - Ligand no.2 (% of WT) (MC4R variants [3]; [14]): 104.9 % of WT | cAMP Emax - Ligand no.2 (% of WT) (MC4R variants [3]; MC4R H158R, COS-7 cell line, ref Hinney A, J Clin Endocrinol Metab, 2006): 122.0 % of WT | cAMP Emax - Ligand no.2 (% of WT) (MC4R variants [3]; MC4R I125K, ref Xiang Z, Biochemistry, 2006): 0.0 % of WT | cAMP Emax - Ligand no.2 (% of WT) (MC4R variants [3]; MC4R I170V, COS-7 cell line, ref Hughes DA, Hum Genet, 2009): 97.0 % of WT | cAMP Emax - Ligand no.2 (MC4R variants [3]; [15]): 0.0 % of WT | cAMP Emax - Ligand no.2 (% of WT) (MC4R variants [3]; [16]): 65.8 % of WT | cAMP Emax - Ligand no.2 (% of WT) (MC4R variants [3]; [17]): 94.1 % of WT | cAMP Emax - Ligand no.2 (MC4R variants [3]; MC4R I251WfsX34, ref Xiang Z, Biochemistry, 2010): 0.0 % of WT | cAMP Emax - Ligand no.2 (MC4R variants [3]; MC4R L211MfsX6, ref Xiang Z, Biochemistry, 2006): 0.0 % of WT | cAMP Emax - Ligand no.2 (% of WT) (MC4R variants [3]; MC4R M200V, COS-7 cell line, ref Hinney A, J Clin Endocrinol Metab, 2006): 91.0 % of WT | cAMP Emax - Ligand no.2 (% of WT) (MC4R variants [3]; [18]): 20.0 % of WT | cAMP Emax - Ligand no.2 (% of WT) (MC4R variants [3]; MC4R Q156R, COS-7 cell line, ref Hinney A, J Clin Endocrinol Metab, 2006): 92.0 % of WT | cAMP Emax - Ligand no.2 (MC4R variants [3]; MC4R Q307X, ref Santoro N, BMC Med Genet, 2009): 0.0 % of WT | cAMP Emax - Ligand no.2 (MC4R variants [3]; [19]): 0.0 % of WT | cAMP Emax - Ligand no.2 (MC4R variants [3]; MC4R R7C, COS-7 cell line, ref Hinney A, J Clin Endocrinol Metab, 2006): 83.0 % of WT | cAMP Emax - Ligand no.2 (% of WT) (MC4R variants [3]; MC4R R236H, COS-7 cell line, ref Hinney A, J Clin Endocrinol Metab, 2006): 96.0 % of WT | cAMP Emax - Ligand no.2 (MC4R variants [3]; MC4R S36T, COS-7 cell line, ref Hughes DA, Hum Genet, 2009): 82.0 % of WT | cAMP Emax - Ligand no.2 (% of WT) (MC4R variants [3]; MC4R S136F, COS-7 cell line, ref Tarnow P, Obes Facts, 2008): 23.0 % of WT | cAMP Emax - Ligand no.2 (% of WT) (MC4R variants [3]; MC4R S191T, COS-7 cell line, ref Hughes DA, Hum Genet, 2009): 97.0 % of WT | cAMP Emax - Ligand no.2 (% of WT) (MC4R variants [3]; MC4R T162R, COS-7 cell line, ref Ochoa MC, Clin Endocrinol, 2007): 80.0 % of WT | cAMP Emax - Ligand no.2 (% of WT) (MC4R variants [3]; [20]): 79.5 % of WT | cAMP Emax - Ligand no.2 (% of WT) (MC4R variants [3]; MC4R V166I, COS-7 cell line, ref Hinney A, J Clin Endocrinol Metab, 2006): 105.0 % of WT | cAMP Emax - Ligand no.2 (% of WT) (MC4R variants [3]; MC4R V166I, COS-7 cell line, ref Hughes DA, Hum Genet, 2009): 105.0 % of WT | cAMP Emax - Ligand no.2 (% of WT) (MC4R variants [3]; MC4R W174C, ref Xiang Z, Biochemistry, 2010): 0.0 % of WT | cAMP Emax - Ligand no.2 (MC4R variants [3]; MC4R Y35X, ref Xiang Z, Biochemistry, 2006): 0.0 % of WT | Binding Bmax - Ligand no.2 (% of WT) (MC4R variants [4]; [11]): 0.0 % of WT | Binding Bmax - Ligand no.2 (% of WT) (MC4R variants [4]; [12]): 23.9 % of WT | Binding Bmax - Ligand no.2 (% of WT) (MC4R variants [4]; [13]): 116.0 % of WT | Binding Bmax (% of WT) (MC4R variants [4]; MC4R F280L, ref Wang ZQ, Biochim Biophys Acta, 2011): 57.4 % of WT | Binding Bmax - Ligand no.2 (% of WT) (MC4R variants [4]; [14]): 123.2 % of WT | Binding Bmax (% of WT) (MC4R variants [4]; MC4R H76R, ref Wang ZQ, Biochim Biophys Acta, 2011): 81.7 % of WT | Binding Bmax (% of WT) (MC4R variants [4]; MC4R I69R, ref Wang ZQ, Biochim Biophys Acta, 2011): 0.0 % of WT | Binding Bmax - Ligand no.2 (MC4R variants [4]; [15]): 0.0 % of WT | Binding Bmax - Ligand no.2 (% of WT) (MC4R variants [4]; [16]): 150.5 % of WT | Binding Bmax - Ligand no.2 (% of WT) (MC4R variants [4]; [17]): 71.2 % of WT | Binding Bmax (% of WT) (MC4R variants [4]; MC4R I289L, ref Wang ZQ, Biochim Biophys Acta, 2011): 127.4 % of WT | Binding Bmax (% of WT) (MC4R variants [4]; MC4R M79I, ref Wang ZQ, Biochim Biophys Acta, 2011): 98.2 % of WT | Binding Bmax - Ligand no.2 (% of WT) (MC4R variants [4]; [18]): 0.0 % of WT | Binding Bmax - Ligand no.2 (MC4R variants [4]; [19]): 0.0 % of WT | Binding Bmax (% of WT) (MC4R variants [4]; MC4R R305S, ref Wang ZQ, Biochim Biophys Acta, 2011): 128.1 % of WT | Binding Bmax (% of WT) (MC4R variants [4]; MC4R S94N, ref Wang ZQ, Biochim Biophys Acta, 2011): 41.0 % of WT | Binding Bmax - Ligand no.2 (% of WT) (MC4R variants [4]; [20]): 125.0 % of WT | Binding Bmax (% of WT) (MC4R variants [4]; MC4R Y332C, ref Wang ZQ, Biochim Biophys Acta, 2011): 129.6 % of WT | Binding Bmax (% of WT) (MC4R variants [4]; MC4R Y332H, ref Wang ZQ, Biochim Biophys Acta, 2011): 150.0 % of WT

B1: Y80X (protein, UniProt P32245 1-79, looked up, fragment)
chain: MVNSTHRGMHTSLHLWNRSSYRLHSNASESLGKGYSDGGCYEQLFVSPEVFVTLGVISLLENILVIVAIAKNKNLHSPM
modifications: nonsense Y80X
Cell surface expression (MC4R variants [1]; [10]): 0 % of WT | Basal activity (MC4R variants [2]; [10]): 10 % of WT

B2: I170del (protein, UniProt P32245 1-332, looked up, variant I170*)
Melanocortin receptor 4: MVNSTHRGMHTSLHLWNRSSYRLHSNASESLGKGYSDGGCYEQLFVSPEVFVTLGVISLLENILVIVAIAKNKNLHSPMYFFICSLAVADMLVSVSNGSETIVITLLNSTDTDAQSFTVNIDNVIDSVICSSLLASICSLLSIAVDRYFTIFYALQYHNIMTVKRVGIISCIWAACTVSGILFIIYSDSSAVIICLITMFFTMLALMASLYVHMFLMARLHIKRIAVLPGTGAIRQGANMKGAITLTILIGVFVVCWAPFFLHLIFYISCPQNPYCVCFMSHFNLYLILIMCNSIIDPLIYALRSQELRKTFKEIICCYPLGGLCDLSSRY
Cell surface expression (MC4R variants [1]; [21]): 10 % of WT | Basal activity (MC4R variants [2]; [21]): 25 % of WT
